Assay results reported in US6511978B1, “Pyrrole derivatives useful for farnesyl transferase inhibitors and their preparations” (LG Life Sciences, Ltd., priority 1999, dated 2003).

Key:
Ras farnesyl transferase [1] = target: T1, Ras farnesyl transferase (Homo sapiens, UniProt P49354+P49356); assay: Ras farnesyl transferase enzyme inhibition, H-Ras substrate; format: biochemical; conditions: H-Ras substrate protein; recombinant farnesyl transferase; 30 minutes at 37° C.
T1 construct: made in house

Ras farnesyl transferase [2] = target: T1, Ras farnesyl transferase; assay: Ras farnesyl transferase enzyme inhibition, K-Ras substrate (H-Ras fused with polybasic lysine domain of K-Ras); format: biochemical; conditions: K-Ras substrate (fused protein of H-Ras with polybasic lysine domain of K-Ras); recombinant farnesyl transferase
Ras farnesyl transferase [3] = target: T2, Ras farnesyl transferase (Rattus norvegicus, UniProt Q02293+Q04631); assay: In vivo (intracellular) Ras farnesylation inhibition in Rat2 cell line expressing C-Harvey-Ras; format: cell-based; conditions: Rat2 cells expressing C-Harvey-Ras; concentration inhibiting 50% of farnesyl binding; read-out: H-Ras CIC50
T2 construct: endogenous in cells; host or cells: Rat2 fibroblasts transformed with C-Harvey-Ras or with the H-Ras/K-Ras polybasic-domain fusion
Method in brief: (§1)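 Transformed Rat2 fibroblasts treated with compound (1% DMSO) for 4 h, then labelled with [^35S]methionine 150 μCi/ml for 20 h. Ras immunoprecipitated with Y13-259 and resolved on 13.5% SDS-PAGE autoradiography; CIC50 is concentration inhibiting 50% of farnesylated Ras band.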

Ras farnesyl transferase [4] = target: T2, Ras farnesyl transferase; assay: In vivo (intracellular) Ras farnesylation inhibition in Rat2 cell line transformed with H-Ras fused with polybasic lysine domain of K-Ras; format: cell-based; conditions: Rat2 cells transformed with H-Ras/K-Ras polybasic domain fused protein; concentration inhibiting 50% of farnesyl binding; read-out: K-Ras CIC50
Method in brief: as §1

| Compound | IC50 (Ras farnesyl transferase [1]) | IC50 (Ras farnesyl transferase [2]) | IC50 (Ras farnesyl transferase [3]) | IC50 (Ras farnesyl transferase [4]) |
| --- | --- | --- | --- | --- |
| O=[N+]([O-])c1cn(Cc2cncn2Cc2ccc3ccccc3c2)cc1-c1cccc2ccccc12 [Example 49, 1-[1-(naphthalen-2-ylmethyl)-1H-imidazol-5-ylmethyl]-4-(naphthalen-1-yl)-3-nitro-1H-pyrrole] | < 30 nM | > 30 nM | > 50 nM | > 10000 nM |
| Nc1cn(Cc2cncn2Cc2ccc(Cl)cc2)cc1-c1cccc2ccccc12 [Example 50, 3-amino-1-[1-(4-chlorobenzyl)-1H-imidazol-5-ylmethyl]-4-(naphthalen-1-yl)-1H-pyrrole] | > 30 nM | > 30 nM | > 50 nM | > 10000 nM |
| Cc1ncn(Cc2ccc3c(c2)OCO3)c1Cn1cc(C(=O)N2CCN(C)CC2)c(-c2cc(Br)cc3ccccc23)c1 [Example 51, 4-(3-bromonaphthalen-1-yl)-1-[4-methyl-1-(3,4-methylenedioxybenzyl)-1H-imidazol-5-ylmethyl]-3-(4-methylpiperazin-1-yl)carbonyl-1H-pyrrole] | < 10 nM | < 30 nM | < 10 nM | > 10000 nM |

Continued, values first:

| IC50 (Ras farnesyl transferase [1]) | IC50 (Ras farnesyl transferase [2]) | IC50 (Ras farnesyl transferase [3]) | IC50 (Ras farnesyl transferase [4]) | Compound |
| --- | --- | --- | --- | --- |
| < 10 nM | < 30 nM | < 10 nM | > 10000 nM | Cc1ncn(Cc2ccc3c(c2)OCO3)c1Cn1cc(C(=O)N2CCN(C)CC2)c(-c2cc(Cl)cc3ccccc23)c1 [Example 52, 4-(3-chloronaphthalen-1-yl)-1-[4-methyl-1-(3,4-methylenedioxybenzyl)-1H-imidazol-5-ylmethyl]-3-(4-methylpiperazin-1-yl)carbonyl-1H-pyrrole] |
| < 10 nM | < 30 nM | < 10 nM | > 10000 nM | Cc1ncn(Cc2ccc3ccccc3c2)c1Cn1cc(C(=O)N2CCN(C)CC2)c(-c2cc(Br)cc3ccccc23)c1 [Example 53, 4-(3-bromonaphthalen-1-yl)-1-[4-methyl-1-(naphthalen-2-yl)methyl-1H-imidazol-5-ylmethyl]-3-(4-methylpiperazin-1-yl)carbonyl-1H-pyrrole] |
| < 10 nM | < 30 nM | < 10 nM | > 10000 nM | Cc1ncn(Cc2ccc3ccccc3c2)c1Cn1cc(C(=O)N2CCN(C)CC2)c(-c2cc(Cl)cc3ccccc23)c1 [Example 54, 4-(3-chloronaphthalen-1-yl)-1-[4-methyl-1-(naphthalen-2-yl)methyl-1H-imidazol-5-ylmethyl]-3-(4-methylpiperazin-1-yl)carbonyl-1H-pyrrole] |
| < 10 nM | < 30 nM | < 10 nM | > 10000 nM | Cc1ncn(Cc2ccc3ccccc3c2)c1Cn1cc(C(=O)N2CCN(C)CC2)c(-c2cccc3ccccc23)c1 [Example 55, 1-[4-methyl-1-(naphthalen-2-yl)methyl-1H-imidazol-5-ylmethyl]-3-(4-methylpiperazin-1-yl)carbonyl-4-(naphthalen-1-yl)-1H-pyrrole] |
